Source: patent US4416883A, “Penicillin derivatives” (Beecham Group Limited, priority 1980, dated 1983)

Tests used:
Format in all cases: cell-based
[1] = test system: E. coli JT4; test: MIC against E. coli JT4; conditions: Escherichia coli, AGAR
Text: (§1) | MIC values (μg/ml) of the compounds of Example 4b against | a number of organisms important in human infections

[2] = test system: E. coli JT425; test: MIC against E. coli JT425; conditions: Escherichia coli, AGAR
Text: as §1

[3] = test system: E. coli NCTC 10418; test: MIC against E. coli NCTC 10418; conditions: Escherichia coli
Text: as §1

[4] = test system: Ps aeruginosa 10662; test: MIC against Ps aeruginosa 10662
Text: as §1

[5] = test system: Ps aeruginosa Dalgleish; test: MIC against Ps aeruginosa Dalgleish; conditions: AGAR; Ps aeruginosa Dalgleish 10^-2
Text: as §1

[6] = test system: Serratia marcescens US32; test: MIC against Serratia marcescens US32; conditions: AGAR
Text: as §1

[7] = test system: Klebsiella aerogenes A; test: MIC against Klebsiella aerogenes A
Text: as §1

[8] = test system: Enterobacter cloacae N1; test: MIC against Enterobacter cloacae N1; conditions: AGAR
Text: as §1

[9] = test system: P. mirabilis C977; test: MIC against P. mirabilis C977; conditions: Proteus mirabilis, AGAR
Text: as §1

[10] = test system: P. mirabilis 889; test: MIC against P. mirabilis 889; conditions: Proteus mirabilis, AGAR
Text: as §1

[11] = test system: P. morganii; test: MIC against P. morganii; conditions: Morganella morganii, AGAR
Text: as §1

[12] = test system: P. rettgeri; test: MIC against P. rettgeri; conditions: Providencia rettgeri, AGAR
Text: as §1

[13] = test system: B. subtilis; test: MIC against B. subtilis; conditions: Bacillus subtilis, AGAR
Text: as §1

[14] = test system: Staph. aureus Oxford; test: MIC against Staph. aureus Oxford; conditions: Staphylococcus aureus
Text: as §1

[15] = test system: Staph. aureus Russell; test: MIC against Staph. aureus Russell; conditions: Staphylococcus aureus, AGAR
Text: as §1

[16] = test system: S. faecalis I; test: MIC against S. faecalis I; conditions: Enterococcus faecalis, AGAR
Text: as §1

[17] = test system: β-Haemolytic Strep. CN10; test: MIC against β-Haemolytic Strep. CN10; conditions: AGAR
Text: as §1

MIC [1]: > 100 µg/mL
MIC [2]: 10 µg/mL
MIC ([3]; NCTC10418, AGAR): 1 µg/mL
MIC ([3]; NCTC10418, BROTH): 0.5 µg/mL
MIC ([4]; AGAR, Ps aeruginosa 10662): 10 µg/mL
MIC ([4]; AGAR, Ps aeruginosa 10662 10^-2): 5 µg/mL
MIC ([4]; BROTH, Ps aeruginosa 10662): 10 µg/mL
MIC ([4]; BROTH, Ps aeruginosa 10662 10^-2): 5 µg/mL
MIC [5]: > 100 µg/mL
MIC [6]: 0.5 µg/mL
MIC ([7]; AGAR): 0.2 µg/mL
MIC ([7]; BROTH): > 10 µg/mL
MIC [8]: 0.5 µg/mL
MIC [9]: 0.1 µg/mL
MIC [10]: > 100 µg/mL
MIC [11]: 0.2 µg/mL
MIC [12]: 0.5 µg/mL
MIC [13]: 5 µg/mL
MIC ([14]; AGAR): 1 µg/mL
MIC ([14]; BROTH): 0.5 µg/mL
MIC [15]: > 100 µg/mL
MIC [16]: 50 µg/mL
SMILES: CCN1CCN(C(=O)N[C@@H](C(=O)N[C@@H]2C(=O)N3[C@@H](C(=O)O)CS[C@H]23)c2ccccc2)C(=O)C1=O [Example 4b, Sodium 6β[D,2(4-ethyl-2,3-dioxopiperazine-1-carbonylamino)]phenylacetamidobisnorpenicillanate]
MIC [17]: 0.2 µg/mL
